Here are results for one molecule from patent US20260015365A1, “PRODRUGS OF SOMATOSTATIN RECEPTORS SUBTYPE 4 (SSTR4) AGONISTS AND THEIR APPLICATIONS” (Humanwell Pharmaceutical US, Inc., priority 2024, published 2026).

This data set is described as follows: Pharmacokinetics in SD rats after intravenous injection and single oral gavage, plasma LC-MS/MS. To be noted: male, rat. In kind it is in vivo. As for the experimental part: SD rats (male, 6-8 weeks old, from JH Laboratory Animal Co., Ltd.) were used for intravenous injection and single oral gavage administration. Plasma samples were collected at 0.083, 0.25, 0.5, 1, 2, 4, 8, and 24 hours post-dose.
The plasma samples were obtained by centrifugation (2000 rpm, 4° C., 5 min). Samples were added to a 96-well plate and mixed with 10 volumes of acetonitrile containing an internal standard. After mixing and shaking, the mixture was centrifuged (5800 rpm, 4° C., 10 min), and the supernatant was transferred to a new 96-well plate.
The resulting solution was injected into the LC-MS/MS system. Drug concentrations in plasma were quantified using the LC-MS/MS method, and pharmacokinetic parameters were calculated accordingly.

In the case of `CC(C)(NC(=O)[C@H]1[C@@H]2CNC[C@H]1C2)c1ncc2c(Br)cccn12` [compound 1], where the note is “IV, 1 mg/kg”, the AUC(0-inf) – broadly, the area under the concentration-time curve extrapolated to infinity – came out at 370 ng·h/mL; the AUC(0-t) – broadly, the area under the concentration-time curve up to a stated or last time point – stood at 361 ng·h/mL; the MRT inf (in general, a mean duration of stay, worked out from the concentration-time curve) is 0.879 h; the clearance was 45.2 mL/min/kg. The half-life (as a rule, the time needed for the level to fall by half in the phase considered) (IV, 1 mg/kg) was 0.814 h. The Vd (IV, 1 mg/kg, read-out: Vss) was determined as 2.38 L/kg. Under “PO, 3 mg/kg”, the Cmax (in general, the peak of the concentration-time curve) was found to be 36.3 ng/mL; the Tmax (as a rule, the time from dosing to the highest level) is 1.42 h; the half-life was 2.43 h.
